These results are taken from patent US20070265164A1, “Active Substances for Increasing Pathogenic Defense in Plants and Methods for the Detection Thereof” (Bayer Cropscience GmbH, priority 2004, published 2007).

Holding throughout (type): in vivo
Design in all cases: fold induction: dose or concentration left out as unconfirmed
Settings in all cases: for fold induction: rates of Table 1 (S7 500)

For experiment [1], the system named is Contig 4986_at, Allene oxide cyclase. The experiment is described as follows: GEP, barley DNA chip, probe set 1.5. As for the experimental part: (§1) Barley plants (cv. Baronesse) were grown in compost-filled pots (diameter: 10 cm) for 10 days in a controlled-environment cabinet under defined light, humidity and temperature conditions (white light, 70% atmospheric humidity, 24° C.). At the time of spray application, the seedlings were approximately 15 cm in size. The test substances selected in this example were molecules which differ markedly in their structure and which have a well documented pronounced safener effect, and other molecules which are known from the literature to have an effect on plant stress and pathogen tolerance (Table 1). The substances were prepared as stock solutions in DMSO (dimethyl sulfoxide) at c=10 mg/ml). This was used for preparing dilutions in water supplemented with 0.2% Agrotin (comprises polyvinyl alcohol, silicones, polysaccharides and pH regulators, manufacturer: Bayer CropScience AG, Monheim, Germany), as wetter, to give the application rates shown in the table. The amount of liquid for the spray application was 800 μl per pot, corresponding to 800 l/ha. For each 800 μl of spray mixture, 16 μl of EC premix: diacetone alcohol=1:6 were additionally added as formulation auxiliaries. The substances listed in Table 1 were applied to the leaves by means of a pneumatic spray pistol. Each substance was sprayed as 2 dosages, and all experiments were carried out as replicates (2 pots per substance). Sprayings with blank formulation without active ingredient were carried out as controls. After 6 hours, the leaves were harvested, frozen in liquid nitrogen and stored at −80° C. until further use. The labeled RNA probes for the DNA chip hybridization were prepared as described in the protocols (Expression Analysis, Technical Manual) from Affymetrix (Affymetrix Inc., 3380 Central Expressway, Santa Clara, Calif., USA). First, total RNA was isolated from in each case 500 mg of the harvested leaves. In each case 10 μg of total RNA was used for the first-strand and second-strand cDNA synthesis. The cDNA was amplified with T7 polymerase and simultaneously labeled with biotin-UTP. In each case, 20 μg of this biotinylated cDNA was employed for the hybridization of the barley genome array (Gene Chip Barleyl, order No.: 511012) from Affymetrix. This DNA microarray comprises DNA sequences of 22 840 genes which are composed of a total of 400 000 EST sequences. Thereafter, the DNA microarrays were washed in the Affymetrix Fluidics Station, stained with streptavidin/phycoerythrin (Molecular Probes, P/N S-866) and scanned with the matching Agilent Laser Scanner (Agilent Gene Array Scanner). The fluorescent data obtained were analyzed with the software Microarray Suite 5 from Affymetrix. After the quality had been checked, all DNA chip analyses were stored in a database. To determine the relative expression values for genes (induction factors, repression factors), test and control chips were compared with each other, and the scoring function set by the Affymetrix software was used as the basis. The 2 biological replications of one experiment were compared in each case with 2 control chips (blank formulation), and the 4 expression values obtained for each gene were used for calculating the median. These medians are shown in the results tables as induction factors. Similarity comparisons of expression profiles from different experiments and cluster analyses were carried out using the software GeneMaths 1.5 from Applied Maths (Applied Maths, Keistraat 120, 9830 Sint-Martens-Latem, Belgium).
(§2) Gene groups from specific metabolic pathways and signal transduction chains were put together by key word search in the annotations, of the genes, which were also provided by Affymetrix, and by Blast analyses (homology comparisons) of the DNA target sequences, i.e. of the positive sequence (identified on the basis of a modified expression profile) identified on the DNA chip, using gene sequences from other organisms, preferably plant organisms, with characterized functions. […]

The test system of experiment [2] is Contig3097_at, Allene oxide synthase. The experiment can be described thus: GEP, barley DNA chip, probe set 1.3. As for the experimental part:
as §1, §2

Experiment [3] has as its system Contig15_a_at, GDSL-motif lipase/hydrolase-like protein. The experiment can be described thus: GEP, barley DNA chip, probe set 1.9. How it is done: as §1, §2
The subject of experiment [4] is Contig8905_at, Xytanase inhibitor protein. The experiment is described as follows: GEP, barley DNA chip, probe set 3.1. As for the experimental part: as §1, §2
For experiment [5], the system named is HD07M22r_s_at, Proteinase-Inhibitor (pir S71555, barley). The experiment can be described thus: GEP, barley DNA chip, probe set 2.4. How it is done: as §1, §2
Experiment [6] has as its system Contig3096_s_at, Allene oxide synthase. The experiment can be described thus: GEP, barley DNA chip, probe set 1.16. How it is done: as §1, §2
In experiment [7] the test system is Contig2326_s_at, 12-oxophytodienoic acid reductase. The experiment can be described thus: GEP, barley DNA chip, probe set 1.18. As for the experimental part: as §1, §2
In experiment [8] the test system is Contig9556_at, 12-oxophytodienoate reductase 3. The experiment can be described thus: GEP, barley DNA chip, probe set 1.8. As for the experimental part: as §1, §2
Experiment [9] relates to Contig5607_s_at, Pathogen-related protein (PirT06168). The experiment is described as follows: GEP, barley DNA chip, probe set 4.3. As for the experimental part:
as §1, §2

Experiment [10] has as its system Contig2992_s_at, Chitinase (EC 3.2.1.14). The experiment can be described thus: GEP, barley DNA chip, probe set 5.2. As for the experimental part: as §1, §2
In experiment [11] the test system is Contig12574_at, Putative lipoxygenase. The experiment is described as follows: GEP, barley DNA chip, probe set 1.11. As for the experimental part: as §1, §2
The test system of experiment [12] is Contig2088_s_at, Bowman-Birk type trypsin inhibitor. The experiment can be described thus: GEP, barley DNA chip, probe set 2.1. As for the experimental part:
as §1, §2

Experiment [13] has as its system Contig5369_at, Pathogen-related protein. The experiment is described as follows: GEP, barley DNA chip, probe set 4.2. How it is done: as §1, §2
[14] abbreviates: Hordeum vulgare, topical, barley leaves 6 h after spray application, median induction factor vs control, read-out: Expression value, 1.5 Contig 4986_at.
Setting [15] is: Hordeum vulgare, topical, barley leaves 6 h after spray application, median induction factor vs control, read-out: Expression value, 1.3 Contig3097_at.
Setting [16] is: Hordeum vulgare, topical, barley leaves 6 h after spray application, median induction factor vs control, read-out: Expression value, 1.9 Contig15_a_at.
Setting [17] is: Hordeum vulgare, topical, barley leaves 6 h after spray application, median induction factor vs control, read-out: Expression value, 3.1 Contig8905_at.
Setting [18] is: Hordeum vulgare, topical, barley leaves 6 h after spray application, median induction factor vs control, read-out: Expression value, 2.4 HD07M22r_s_at.
Where [19] appears, read: Hordeum vulgare, topical, barley leaves 6 h after spray application, median induction factor vs control, read-out: Expression value, 1.16 Contig3096_s_at.
The mark [20] stands for this setting: Hordeum vulgare, topical, barley leaves 6 h after spray application, median induction factor vs control, read-out: Expression value, 1.18 Contig2326_s_at.
The mark [21] stands for this setting: Hordeum vulgare, topical, barley leaves 6 h after spray application, median induction factor vs control, read-out: Expression value, 1.8 Contig9556_at.
The mark [22] stands for this setting: Hordeum vulgare, topical, barley leaves 6 h after spray application, median induction factor vs control, read-out: Expression value, 4.3 Contig5607_s_at.
Setting [23] is: Hordeum vulgare, topical, barley leaves 6 h after spray application, median induction factor vs control, read-out: Expression value, 5.2 Contig2992_s_at.
The mark [24] stands for this setting: Hordeum vulgare, barley leaves 6 h after spray application, median induction factor vs control, read-out: Expression value, 1.11 Contig12574_at.
[25] abbreviates: Hordeum vulgare, topical, barley leaves 6 h after spray application, median induction factor vs control, read-out: Expression value, 2.1 Contig2088_s_at.
The mark [26] stands for this setting: Hordeum vulgare, topical, barley leaves 6 h after spray application, median induction factor vs control, read-out: Expression value, 4.2 Contig5369_at.
Setting [27] is: barley leaves 6 h after spray application, rates of Table 1 (150 g a.i./ha, S7 500), median induction factor vs control.

In the case of `O=C(O)c1cc(Cl)cc(Cl)c1O` [S10], the fold induction in [1] (setting [14]), in experiment [2] (setting [15]), in [3] (setting [16]), in experiment [4] (setting [17]), in experiment [5] (setting [18]) and in experiment [6] (setting [19]) was 1 throughout. For the same molecule, the fold induction is 1 in experiment [7] (setting [20]); 1 in experiment [8] (setting [21]); 1 in experiment [9] (setting [22]); 1 in experiment [10] (setting [23]); 1 in experiment [11] (setting [24]); 2.41 in experiment [12] (setting [25]). Further, in experiment [13] (setting [26]), the fold induction was found to be 1.

In the case of `CCCCCC(C)OC(=O)COc1ccc(Cl)c2cccnc12` (stereo not drawn) [S4, Cloquintocet-mexyl], the fold induction in experiment [1] (setting [14]) came to 1; in experiment [2] (setting [15]) it was 1; in experiment [3] (setting [16]), 1; in [4] (setting [17]), 2.73; in experiment [5] (setting [18]), 1; in [6] (setting [19]) it was 1. Moreover, the fold induction was 2.45 in experiment [7] (setting [20]); 1 in experiment [8] (setting [21]); 18.4 in [9] (setting [22]); 1 in [10] (setting [23]); 1 in experiment [11] (setting [24]); 1 in experiment [12] (setting [25]). In addition, the fold induction in [13] (setting [26]) came to 1.

`NC(=O)c1ccc(C(F)(F)F)nc1O` [S6]: the fold induction is 1 in experiment [1] (setting [14]); 1 in [2] (setting [15]); 1 in experiment [3] (setting [16]); 2.45 in [4] (setting [17]); 5.1 in experiment [5] (setting [18]); 1 in experiment [6] (setting [19]). In addition, the fold induction stood at 1 in [7] (setting [20]); 1 in experiment [8] (setting [21]); 9.99 in experiment [9] (setting [22]); 2.27 in [10] (setting [23]); 1 in [11] (setting [24]); 1 in experiment [12] (setting [25]). Further, the fold induction in [13] (setting [26]) amounted to 1.

In the case of `O=C(NO)c1ccccc1O` [S7, Salicyl hydroxamate], the “Expression value, 1.5 Contig 4986_at” value in experiment [1] (setting [27]) turned out to be 1.00 x times. Also, the “Expression value, 1.3 Contig3097_at” value in [2] (setting [27]) worked out at 1.00 x times. For the same molecule, in experiment [3] (setting [27]), the “Expression value, 1.9 Contig15_a_at” value worked out at 1.00 x times. For the same molecule, the “Expression value, 3.1 Contig8905_at” value in experiment [4] (setting [27]) is recorded as 1.00 x times. In experiment [5] (setting [27]), the “Expression value, 2.4 HD07M22r_s_at” value was 1.00 x times. For the same molecule, the “Expression value, 1.16 Contig3096_s_at” value in experiment [6] (setting [27]) turned out to be 2.06 x times. For the same molecule, in [7] (setting [27]), the “Expression value, 1.18 Contig2326_s_at” value was 1.00 x times. In addition, the “Expression value, 1.8 Contig9556_at” value in [8] (setting [27]) was determined as 1.00 x times. The “Expression value, 4.3 Contig5607_s_at” value in experiment [9] (setting [27]) was found to be 1.00 x times. In addition, in experiment [10] (setting [27]), the “Expression value, 5.2 Contig2992_s_at” value amounted to 1.00 x times. In addition, in experiment [11] (setting [27]), the “Expression value, 1.11 Contig12574_at” value is on record as 1.00 x times. In addition, the “Expression value, 2.1 Contig2088_s_at” value in experiment [12] (setting [27]) worked out at 4.79 x times. The “Expression value, 4.2 Contig5369_at” value in experiment [13] (setting [27]) is 1.00 x times.

As for `O=C(O)C1=NN(c2ccc(Cl)cc2Cl)C(c2ccc(F)cc2)C1` (stereo not drawn) [S2], the fold induction stood at 1 in [1] (setting [14]); 1 in experiment [2] (setting [15]); 1 in experiment [3] (setting [16]); 2.53 in [4] (setting [17]); 1 in [5] (setting [18]); 1 in [6] (setting [19]). For the same molecule, the fold induction in [7] (setting [20]) was determined as 1; in [8] (setting [21]), 1; in [9] (setting [22]), 15.6; in [10] (setting [23]) it was 1; in [11] (setting [24]) it was 1; in [12] (setting [25]), 1. The fold induction in experiment [13] (setting [26]) stood at 1.

Regarding `CCOC(=O)C1=NOC(c2ccccc2)(c2ccccc2)C1` [S3, Isoxadifen-ethyl], the fold induction at 150 g/ha in experiment [1] (Hordeum vulgare, topical, 6 h, read-out: Expression value, 1.5 Contig 4986_at) was determined as 3.76; in [2] (Hordeum vulgare, topical, 6 h, read-out: Expression value, 1.3 Contig3097_at), 8.51; in experiment [3] (Hordeum vulgare, topical, 6 h, read-out: Expression value, 1.9 Contig15_a_at), 2.97; in [4] (Hordeum vulgare, topical, 6 h, read-out: Expression value, 3.1 Contig8905_at), 2.99; in experiment [5] (Hordeum vulgare, topical, 6 h, read-out: Expression value, 2.4 HD07M22r_s_at) it was 2.71; in experiment [6] (Hordeum vulgare, topical, 6 h, read-out: Expression value, 1.16 Contig3096_s_at) it was 1. For the same molecule, the fold induction at 150 g/ha amounted to 1 in experiment [7] (Hordeum vulgare, topical, 6 h, read-out: Expression value, 1.18 Contig2326_s_at); 3.03 in experiment [8] (Hordeum vulgare, topical, 6 h, read-out: Expression value, 1.8 Contig9556_at); 13.4 in experiment [9] (Hordeum vulgare, topical, 6 h, read-out: Expression value, 4.3 Contig5607_s_at); 2.19 in experiment [10] (Hordeum vulgare, topical, 6 h, read-out: Expression value, 5.2 Contig2992_s_at); 2.81 in experiment [11] (Hordeum vulgare, 6 h, read-out: Expression value, 1.11 Contig12574_at); 4.26 in experiment [12] (Hordeum vulgare, topical, 6 h, read-out: Expression value, 2.1 Contig2088_s_at). Also, the fold induction at 150 g/ha in experiment [13] (Hordeum vulgare, topical, 6 h, read-out: Expression value, 4.2 Contig5369_at) was 4.76.
